Bounds are passed on as bounds.

The assay deals with GCN2 (Homo sapiens (Human), UniProt Q9P2K8). The assay can be described thus: GCN2 Biochemical Assay (TR-FRET, GFP-eIF2S1 substrate phosphorylation). The note with it: read-out: IC50 (GCN2 Inhibitory Activity). The method in brief: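 In-house GCN2 (1.6 nM 2× stock) phosphorylates GFP-eIF2S1 (50 nM 2× stock) with ATP (0.2 mM 2× stock) and tRNA, pH 7.5, 70 min at room temperature; 10-point 3.16-fold compound series. TR-FRET detection with Tb-anti-phospho antibody, 2–3 h, Ex 340/Em 490/520 nm; artifact plate spiked with phospho-substrate.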
Chain of GCN2 (Q9P2K8 whole entry): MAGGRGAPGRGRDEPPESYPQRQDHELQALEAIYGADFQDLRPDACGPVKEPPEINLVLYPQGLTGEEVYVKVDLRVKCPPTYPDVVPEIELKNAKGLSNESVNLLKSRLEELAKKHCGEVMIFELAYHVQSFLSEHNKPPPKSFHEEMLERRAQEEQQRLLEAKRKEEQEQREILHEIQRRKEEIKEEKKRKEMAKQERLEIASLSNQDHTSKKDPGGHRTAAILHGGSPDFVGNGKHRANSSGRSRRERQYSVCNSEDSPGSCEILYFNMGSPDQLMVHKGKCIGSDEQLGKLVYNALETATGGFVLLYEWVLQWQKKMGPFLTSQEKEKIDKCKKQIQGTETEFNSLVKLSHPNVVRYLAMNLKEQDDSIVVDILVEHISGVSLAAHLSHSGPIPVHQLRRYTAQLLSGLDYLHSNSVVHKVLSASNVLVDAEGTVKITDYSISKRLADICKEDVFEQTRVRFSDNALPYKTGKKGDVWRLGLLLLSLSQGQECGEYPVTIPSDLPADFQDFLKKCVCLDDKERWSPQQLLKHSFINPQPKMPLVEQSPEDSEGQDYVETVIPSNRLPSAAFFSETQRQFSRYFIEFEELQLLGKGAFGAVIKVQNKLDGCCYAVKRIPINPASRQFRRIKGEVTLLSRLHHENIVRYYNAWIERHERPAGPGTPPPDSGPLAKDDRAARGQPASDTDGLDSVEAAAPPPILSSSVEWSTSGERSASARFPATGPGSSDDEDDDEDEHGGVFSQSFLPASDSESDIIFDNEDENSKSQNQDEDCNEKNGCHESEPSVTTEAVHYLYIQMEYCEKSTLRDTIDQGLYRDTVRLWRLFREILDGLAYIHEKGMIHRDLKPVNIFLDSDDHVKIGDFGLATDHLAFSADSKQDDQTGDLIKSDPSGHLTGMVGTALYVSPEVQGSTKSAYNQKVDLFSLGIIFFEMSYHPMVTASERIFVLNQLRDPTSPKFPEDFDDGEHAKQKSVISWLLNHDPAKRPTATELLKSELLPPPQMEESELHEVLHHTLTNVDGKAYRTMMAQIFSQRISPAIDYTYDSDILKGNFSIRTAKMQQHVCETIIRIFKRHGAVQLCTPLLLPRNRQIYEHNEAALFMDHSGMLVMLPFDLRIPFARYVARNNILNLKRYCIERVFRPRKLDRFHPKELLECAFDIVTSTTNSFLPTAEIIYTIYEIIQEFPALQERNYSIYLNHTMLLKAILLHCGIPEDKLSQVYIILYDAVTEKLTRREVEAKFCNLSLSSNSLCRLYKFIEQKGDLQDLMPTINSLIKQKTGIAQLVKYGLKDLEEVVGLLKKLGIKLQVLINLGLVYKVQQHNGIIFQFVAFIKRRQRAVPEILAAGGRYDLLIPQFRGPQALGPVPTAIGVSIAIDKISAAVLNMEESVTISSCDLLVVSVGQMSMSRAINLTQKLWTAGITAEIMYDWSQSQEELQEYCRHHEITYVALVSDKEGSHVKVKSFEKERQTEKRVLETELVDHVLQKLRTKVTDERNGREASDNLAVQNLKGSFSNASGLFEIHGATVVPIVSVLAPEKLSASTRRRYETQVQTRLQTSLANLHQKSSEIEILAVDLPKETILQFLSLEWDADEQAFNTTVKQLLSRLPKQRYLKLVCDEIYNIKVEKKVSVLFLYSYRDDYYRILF
(In general: In TR-FRET formats the signal depends on donor and acceptor labels being close together.)
As a reminder, the IC50 is the point on the concentration scale where inhibition reaches its midpoint. `Cc1cnc(Nc2cc(C)n(C)n2)nc1-c1c[nH]c2c(N3Cc4c(cccc4C4=CCCCC4)C3=O)cccc12` [Example 391, 4-(cyclohex-1-en-1-yl)-2-(3-(2-((1,5-dimethyl-1H-pyrazol-3-yl)amino)-5-methylpyrimidin-4-yl)-1H-indol-7-yl)isoindolin-t-one]: the IC50 lay in the range of 10 to 100 nM.
Regarding `Cc1cnc(Nc2cc(C)n(C)n2)nc1-c1c[nH]c2c(NC(=O)CN3CC[C@H](Oc4nc(N)nc(N5CCCC5)n4)C3)cccc12` [Example 139, (S)-2-(3-((4-amino-6-(pyrrolidin-1-yl)-1,3,5-triazin-2-yl)oxy)pyrrolidin-1-yl)-N-(3-(2-((1,5-dimethyl-1H-pyrazol-3-yl)amino)-5-methylpyrimidin-4-yl)-1H-indol-7-yl)acetamide], the 50% inhibitory concentration (IC50) was < 10 nM.
The value for `Cc1cnc(Nc2cc(C)n(C)n2)nc1-c1c[nH]c2c(NC(=O)CN3C[C@H](F)[C@H](Oc4ccnc(NC5CC5)n4)C3)cccc12` [Example 52, 2-((3R,4S)-3-((2-(cyclopropylamino)pyrimidin-4-yl)oxy)-4-fluoropyrrolidin-1-yl)-N-(3-(2-((1,5-dimethyl-1H-pyrazol-3-yl)amino)-5-methylpyrimidin-4-yl)-1H-indol-7-yl)acetamide] was < 10 nM.
With `Cc1cnc(Nc2cc(C)n(C)n2)nc1-c1c[nH]c2c(N3Cc4c(NC(=O)c5ccon5)cccc4C3=O)cccc12` [Example 324, N-(2-(3-(2-((1,5-dimethyl-1H-pyrazol-3-yl)amino)-5-methylpyrimidin-4-yl)-1H-indol-7-yl)-1-oxoisoindolin-4-yl)isoxazole-3-carboxamide] the figure was 10 to 100 nM; with `Cc1cnc(Nc2cc(C)n(C)n2)nc1-c1c[nH]c2c(N3Cc4c(NC(=O)c5ccccn5)cccc4C3=O)cccc12` [Example 297, N-(2-(3-(2-((1,5-dimethyl-1H-pyrazol-3-yl)amino)-5-methylpyrimidin-4-yl)-1H-indol-7-yl)-1-oxoisoindolin-4-yl)picolinamide], < 10 nM; with `Cc1cnc(Nc2cc(C)n(C)n2)nc1-c1c[nH]c2c(NC(=O)CN3CC[C@H](Oc4nccc(C(=O)N(C)C)n4)C3)cccc12` [Example 131, (S)-2-((1-(2-((3-(2-((1,5-dimethyl-1H-pyrazol-3-yl)amino)-5-methylpyrimidin-4-yl)-1H-indol-7-yl)amino)-2-oxoethyl)pyrrolidin-3-yl)oxy)-N,N-dimethylpyrimidine-4-carboxamide], 10 to 100 nM.
With `Cc1cnc(Nc2cc(C)n(C)n2)nc1-c1c[nH]c2c(NC(=O)CN3CCC(Oc4ccccn4)CC3)cccc12` [Example 39, N-(3-(2-((1,5-dimethyl-1H-pyrazol-3-yl)amino)-5-methylpyrimidin-4-yl)-1H-indol-7-yl)-2-(4-(pyridin-2-yloxy)piperidin-1-yl)acetamide] the figure was 100 to 1000 nM; with `Cc1cnc(Nc2cc(C)n(C)n2)nc1-c1c[nH]c2c(NC(=O)CN3C[C@@H](F)[C@@H](Oc4ccnc(NC5CC5)n4)C3)cccc12` [Example 54, 2-((3S,4R)-3-((2-(cyclopropylamino)pyrimidin-4-yl)oxy)-4-fluoropyrrolidin-1-yl)-N-(3-(2-((1,5-dimethyl-1H-pyrazol-3-yl)amino)-5-methylpyrimidin-4-yl)-1H-indol-7-yl)acetamide], 10 to 100 nM.
As to `Cc1cnc(Nc2cc(C)n(C)n2)nc1-c1c[nH]c2c(N3Cc4cccc(NCc5ccccc5)c4C3=O)cccc12` [Example 350, 7-(benzylamino)-2-(3-(2-((1,5-dimethyl-1H-pyrazol-3-yl)amino)-5-methylpyrimidin-4-yl)-1H-indol-7-yl)isoindolin-1-one], the IC50 was 100 to 1000 nM.
For `Cc1cnc(Nc2cc(C)n(C)n2)nc1-c1c[nH]c2c(N3Cc4c(cccc4-c4c(F)cncc4F)C3=O)cccc12` [Example 428, 4-(3,5-difluoropyridin-4-yl)-2-(3-(2-((1,5-dimethyl-1H-pyrazol-3-yl)amino)-5-methylpyrimidin-4-yl)-1H-indol-7-yl)isoindolin-t-one], the concentration for half-maximal inhibition (IC50) was < 10 nM.
With `Cc1cnc(Nc2cc(C)n(C)n2)nc1-c1c[nH]c2c(NC(=O)CN3CC[C@H](Oc4ccnc(OCc5ccccc5)n4)C3)cccc12` [Example 195, (S)-2-(3-((2-(benzyloxy)pyrimidin-4-yl)oxy)pyrrolidin-1-yl)-N-(3-(2-((1,5-dimethyl-1H-pyrazol-3-yl)amino)-5-methylpyrimidin-4-yl)-1H-indol-7-yl)acetamide] the figure was 10 to 100 nM.
With `Cc1cc(Nc2ncc(Cl)c(-c3c[nH]c4c(NC(=O)CN5CC[C@H](Oc6ccncc6)C5)cccc34)n2)nn1C` [Example 9, (S)-N-(3-(5-chloro-2-((1,5-dimethyl-1H-pyrazol-3-yl)amino)pyrimidin-4-yl)-1H-indol-7-yl)-2-(3-(pyridin-4-yloxy)pyrrolidin-1-yl)acetamide] the figure was < 10 nM; with `Cc1cnc(Nc2cc(C)n(C)n2)nc1-c1c[nH]c2c(N3Cc4c(NC(=O)[C@H]5CCNC5)cccc4C3=O)cccc12` [Example 316, (S)-N-(2-(3-(2-((1,5-dimethyl-1H-pyrazol-3-yl)amino)-5-methylpyrimidin-4-yl)-1H-indol-7-yl)-1-oxoisoindolin-4-yl)pyrrolidine-3-carboxamide], 10 to 100 nM; with `Cc1cnc(Nc2cc(C)n(C)n2)nc1-c1c[nH]c2c(N3Cc4c(cccc4-c4ccc5cnn(C)c5c4)C3=O)cccc12` [Example 450, 2-(3-(2-((1,5-dimethyl-1H-pyrazol-3-yl)amino)-5-methylpyrimidin-4-yl)-1H-indol-7-yl)-4-(i-methyl-1H-indazol-6-yl)isoindolin-1-one], 10 to 100 nM.
Regarding `COc1cc(-c2cccc3c2CN(c2cccc4c(-c5nc(Nc6cc(C)n(C)n6)ncc5C)c[nH]c24)C3=O)c(F)cn1` [Example 403, 2-(3-(2-((1,5-dimethyl-1H-pyrazol-3-yl)amino)-5-methylpyrimidin-4-yl)-1H-indol-7-yl)-4-(5-fluoro-2-methoxypyridin-4-yl)isoindolin-1-one], the half-inhibitory concentration (IC50) lay in the range of 10 to 100 nM.
With `Cc1cnc(Nc2cc(C)n(C)n2)nc1-c1c[nH]c2c(NC(=O)CN3CC[C@H](Oc4ccnc(N(C)C)n4)C3)cccc12` [Example 220, (S)-N-(3-(2-((1,5-dimethyl-1H-pyrazol-3-yl)amino)-5-methylpyrimidin-4-yl)-1H-indol-7-yl)-2-(3-((2-(dimethylamino)pyrimidin-4-yl)oxy)pyrrolidin-1-yl)acetamide] the figure was 10 to 100 nM; with `Cc1cnc(Nc2cc(C)n(C)n2)nc1-c1c[nH]c2c(N3Cc4cc(-c5ccccc5)ccc4C3=O)cccc12` [Example 378, 2-(3-(2-((1,5-dimethyl-1H-pyrazol-3-yl)amino)-5-methylpyrimidin-4-yl)-1H-indol-7-yl)-5-phenylisoindolin-1-one], > 1000 nM.
The value for `Cc1cc(Nc2ncc(F)c(-c3c[nH]c4c(NC(=O)CN5CC[C@H](Oc6ccncc6)C5)cccc34)n2)nn1C` [Example 8, (S)-N-(3-(2-((1,5-dimethyl-1H-pyrazol-3-yl)amino)-5-fluoropyrimidin-4-yl)-1H-indol-7-yl)-2-(3-(pyridin-4-yloxy)pyrrolidin-1-yl)acetamide] was < 10 nM; that for `Cc1cnc(Nc2cc(C)n(C)n2)nc1-c1c[nH]c2c(NC(=O)CN3CC[C@H](Oc4nc(N5CCOCC5)ncc4F)C3)cccc12` [Example 232, (S)-N-(3-(2-((1,5-dimethyl-1H-pyrazol-3-yl)amino)-5-methylpyrimidin-4-yl)-1H-indol-7-yl)-2-(3-((5-fluoro-2-morpholinopyrimidin-4-yl)oxy)pyrrolidin-1-yl)acetamide] was < 10 nM.
For `CNc1nccc(O[C@H]2CCN(CC(=O)Nc3cccc4c(-c5nc(Nc6cc(C)n(C)n6)ncc5C)c[nH]c34)C2)n1` [Example 197, (S)-N-(3-(2-((1,5-dimethyl-1H-pyrazol-3-yl)amino)-5-methylpyrimidin-4-yl)-1H-indol-7-yl)-2-(3-((2-(methylamino)pyrimidin-4-yl)oxy)pyrrolidin-1-yl)acetamide], the 50% inhibitory concentration (IC50) was < 10 nM.
The value for `Cc1cnc(Nc2cc(C)n(C)n2)nc1-c1c[nH]c2c(NC(=O)CN3CC[C@H](Oc4ccnc(N)c4)C3)cccc12` [Example 90] was < 10 nM.
With `Cc1cnc(Nc2cc(C)n(C)n2)nc1-c1c[nH]c2c(N3Cc4c(cccc4-c4ccc(N)cc4)C3=O)cccc12` [Example 396, 4-(4-aminophenyl)-2-(3-(2-((1,5-dimethyl-1H-pyrazol-3-yl)amino)-5-methylpyrimidin-4-yl)-1H-indol-7-yl)isoindolin-1-one] the figure was < 10 nM.
With `Cc1cnc(Nc2cc(C)n(C)n2)nc1-c1c[nH]c2c(NC(=O)CN3C[C@@H](Oc4ccnc(NC5CC5)n4)C[C@H]3CO)cccc12` [Example 57, 2-((2S,4S)-4-((2-(cyclopropylamino)pyrimidin-4-yl)oxy)-2-(hydroxymethyl)pyrrolidin-1-yl)-N-(3-(2-((1,5-dimethyl-1H-pyrazol-3-yl)amino)-5-methylpyrimidin-4-yl)-1H-indol-7-yl)acetamide] the figure was < 10 nM.
`COc1cc(O[C@H]2CCN(CC(=O)Nc3cccc4c(-c5nc(Nc6cc(C)n(C)n6)ncc5C)c[nH]c34)C2)nc(NC2CC2)n1` [Example 238, (S)-2-(3-((2-(cyclopropylamino)-6-methoxypyrimidin-4-yl)oxy)pyrrolidin-1-yl)-N-(3-(2-((1,5-dimethyl-1H-pyrazol-3-yl)amino)-5-methylpyrimidin-4-yl)-1H-indol-7-yl)acetamide]: the IC50 was < 10 nM.
The value for `Cc1cnc(Nc2cc(C)n(C)n2)nc1-c1c[nH]c2c(N3Cc4ccc(Br)cc4C3=O)cccc12` [Example 284, 6-bromo-2-(3-(2-((1,5-dimethyl-1H-pyrazol-3-yl)amino)-5-methylpyrimidin-4-yl)-1H-indol-7-yl)isoindolin-1-one] was 10 to 100 nM; that for `Cc1cnc(Nc2cc(C)n(C)n2)nc1-c1c[nH]c2c(N3Cc4c(cccc4-c4c(C)noc4C)C3=O)cccc12` [Example 444, 2-(3-(2-((1,5-dimethyl-1H-pyrazol-3-yl)amino)-5-methylpyrimidin-4-yl)-1H-indol-7-yl)-4-(3,5-dimethylisoxazol-4-yl)isoindolin-1-one] was < 10 nM.

The record behind these values is US20240025884A1 (Dong-A ST Co., Ltd., priority 2022, published 2024).
